What follows are molecules tested on normal human melanocytes (assay: Depigmenting activity (reduction of melanin production) in normal human melanocytes in vitro). Details: 200 μM (max dose tested).
Type: cell-based
For `CCOC(=O)CNC(=O)C(OC(C)=O)C1OC[C@@H](OC(C)=O)[C@H](OC(C)=O)[C@H]1O` (stereo partly shown) [Compound 19], the “% depigmentation at the max dose tested 200 μM (run 2)” value was 43%. In the case of `CCOC(=O)[C@@H](CO)NC(=O)C(O)[C@@H]1OC[C@@H](O)[C@H](O)C1O` (stereo partly shown) [Compound 12], the “% depigmentation at the max dose tested 200 μM (run 2)” value is reported as 28%.

The molecules below were run on normal human melanocytes in the same assay as above. Details: run 1, 72 hours incubation, optical density (melanin).
Type: cell-based
Protocol: The measurement of the depigmenting activity (reduction of melanin production) of compounds of formula (I) was performed by assaying normal human melanocytes in vitro as follows.
First, normal human melanocytes are cultured and distributed in wells. After 24 hours, the culture medium was replaced with a medium containing the compounds of formula (I) to be evaluated. The cells were incubated for 72 hours before measuring the final optical density, which measures the amount of melanin produced by the melanocytes. The compounds are tested at 100 μM after calibration.
Various test runs were performed and the results are collated in the following table.
With `O=C(O)c1ccc(NC(=O)C(O)C2O[C@H](CO)[C@@H](O)[C@H](O)[C@H]2O)cc1O` (stereo partly shown) [Compound 1] the “% Depigmentation at 100 μM (run 1)” value was 13%. With `NC(=O)[C@@H](CO)NC(=O)C(O)[C@@H]1OC[C@@H](O)[C@H](O)C1O` (single isomer, unassigned) [Compound 11-dia1] the “% Depigmentation at 100 μM (run 1)” value was 28%. In the case of `NC(=O)CNC(=O)C(O)[C@@H]1O[C@H](CO)[C@@H](O)[C@H](O)C1O` (stereo partly shown) [Compound 4], the “% Depigmentation at 100 μM (run 1)” value is reported as 19%. `NC(=O)[C@@H](CO)NC(=O)C(O)[C@@H]1O[C@H](CO)[C@@H](O)[C@H](O)C1O` (stereo partly shown) [Compound 5] was tested, and the “% Depigmentation at 100 μM (run 1)” value was 31%. With `NC(=O)CCNC(=O)C(O)[C@@H]1O[C@H](CO)[C@@H](O)[C@H](O)C1O` (stereo partly shown) [Compound 7] the “% Depigmentation at 100 μM (run 1)” value was 34%. For `NC(=O)CNC(=O)C(O)[C@@H]1OC[C@@H](O)[C@H](O)C1O` (stereo partly shown) [Compound 10], the “% Depigmentation at 100 μM (run 1)” value was 20%. In the case of `NC(=O)C1CCCN1C(=O)C(O)[C@@H]1O[C@H](CO)[C@@H](O)C(O)C1O` (stereo partly shown) [Compound 6], the “% Depigmentation at 100 μM (run 1)” value is reported as 29%.

Same assay, conditions: run 2, 72 hours incubation, optical density (melanin)
`CCOC(=O)[C@@H](CO)NC(=O)C(OC(C)=O)C1OC[C@@H](OC(C)=O)[C@H](OC(C)=O)[C@H]1O` (single isomer, unassigned) [Compound 20-dia1] was tested, and the “% depigmentation at 100 μM (run 2)” value was 23%. `NC(=O)[C@@H](CO)NC(=O)C(O)[C@@H]1OC[C@@H](O)[C@H](O)C1O` (single isomer, unassigned) [Compound 11-dia2] was tested, and the “% depigmentation at 100 μM (run 2)” value was 32%. With `CCOC(=O)CNC(=O)C(OC(C)=O)C1OC[C@@H](OC(C)=O)[C@H](OC(C)=O)[C@H]1O` (stereo partly shown) [Compound 19] the “% depigmentation at 100 μM (run 2)” value was 15%. For `CCOC(=O)[C@@H](CO)NC(=O)C(O)[C@@H]1OC[C@@H](O)[C@H](O)C1O` (stereo partly shown) [Compound 12], the “% depigmentation at 100 μM (run 2)” value was 20%.
